Results on five compounds are retold here after ChEMBL document CHEMBL1201862, “PubChem BioAssay data set” (2004).

Among the test systems are HL-60; SF-295; HT-29; M14; K562; LOX IMVI; NCI-H522; UACC-257; IGROV-1; A498; SF-539; COLO 205; RPMI-8226; SNB-19; MOLT-4; UACC-62.
What all share (assay): NCI-60 cell line screen, 48 h

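96-well plates; 48 h exposure; 5 concentrations. Endpoints by linear interpolation between flanking doses. Not reached: highest tested concentration assigned. Abbreviation: GI50, concentration required for 50% inhibition of growth.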 The source made the active and inactive calls. No stated cut-off is given here; in the data, active = GI50 up to about 1.1 µM and inactive = higher.

For the compound `[N-]=[N+]=Nc1ncnc2c1sc(=S)n2-c1ccccc1`, the GI50 in the experiment on HL-60 is 84.9 µM (inactive); in the experiment on SF-295, > 100 µM (inactive); with HT-29, > 100 µM (inactive); in the experiment on M14 it was > 100 µM (inactive); with K562, > 100 µM (inactive); with LOX IMVI, > 100 µM (inactive). The GI50 was > 100 µM (inactive) in the experiment on NCI-H522; > 100 µM (inactive) with UACC-257; > 100 µM (inactive) in the experiment on IGROV-1; 78.9 µM (inactive) in the experiment with A498; > 100 µM (inactive) with SF-539; > 100 µM (inactive) in the experiment with COLO 205. Further, the GI50 in the experiment on RPMI-8226, in the experiment on SNB-19, in the experiment on MOLT-4 and in the experiment on UACC-62 was > 100 µM (inactive) throughout.

With `COC1(C)CNCC(C)(C)NC(=O)C(C)(OC)CNCC(C)(C)NC1=O` (stereo not given), the GI50 in the experiment with HL-60, in the experiment on SF-295, with HT-29, in the experiment with M14, in the experiment with K562 and in the experiment with LOX IMVI was > 100 µM (inactive) each time. Also, the GI50 in the experiment with NCI-H522, in the experiment on UACC-257, in the experiment with IGROV-1, in the experiment on A498, with SF-539 and in the experiment on COLO 205 was > 100 µM (inactive) each time. For the same compound, the GI50 in the experiment on RPMI-8226, in the experiment on SNB-19, in the experiment with MOLT-4 and in the experiment on UACC-62 was > 100 µM (inactive) throughout.

As for `CC1=NN(C(=O)c2ccc(Cl)cc2)C(=O)/C1=C/c1c(O)cc(O)c2ccccc12`, the GI50 with HL-60, in the experiment on SF-295, with HT-29, with M14, with K562 and in the experiment with LOX IMVI was > 100 µM (inactive) in each case. Also, the GI50 in the experiment on NCI-H522, in the experiment on UACC-257, in the experiment on IGROV-1, with A498, in the experiment on SF-539 and in the experiment with COLO 205 was > 100 µM (inactive) in each case. The GI50 in the experiment on RPMI-8226, with SNB-19, in the experiment with MOLT-4 and in the experiment on UACC-62 was > 100 µM (inactive) each time.

For the compound `O=C1c2ccccc2C(=O)N1C/C=N/NS(=O)(=O)c1cccc([N+](=O)[O-])c1`, the GI50 with HL-60, in the experiment on SF-295, in the experiment with HT-29, with M14, with K562 and in the experiment with LOX IMVI was > 100 µM (inactive) in each case. Further, the GI50 in the experiment with NCI-H522, in the experiment on UACC-257, with IGROV-1, in the experiment with A498, with SF-539 and in the experiment with COLO 205 was > 100 µM (inactive) in each case. Moreover, the GI50 in the experiment on RPMI-8226, in the experiment on SNB-19, with MOLT-4 and in the experiment on UACC-62 was > 100 µM (inactive) each time.

Take `C=C1C(=O)OC2/C=C(/C)C3CC(O)C(C)(CC(OC(=O)/C(C)=C/C)C12)O3` (stereo not given): the GI50 in the experiment with HL-60 was 0.759 µM (active); in the experiment with SF-295 it was > 39.4 µM (inactive); in the experiment on HT-29 it was 3.76 µM (inactive); with M14 it was 2.91 µM (inactive); in the experiment with K562 it was 1.69 µM (inactive); in the experiment with LOX IMVI, 1.76 µM (inactive). Also, the GI50 was 1.6 µM (inactive) in the experiment with NCI-H522; 4.25 µM (inactive) in the experiment with UACC-257; 5.26 µM (inactive) in the experiment with IGROV-1; 10.4 µM (inactive) in the experiment on A498; 2.14 µM (inactive) with SF-539; 1.52 µM (inactive) in the experiment with COLO 205. Further, the GI50 with RPMI-8226 is 1.83 µM (inactive); with SNB-19 it was 1.97 µM (inactive); with MOLT-4, 1.91 µM (inactive); in the experiment on UACC-62, 2.03 µM (inactive).
